Article PMC12951562, “SH2scan: Mapping SH2 Domain-Ligand Binding Selectivity for Inhibitors and Degraders” (Journal of Medicinal Chemistry, 2026)
Non-standard residues stand in square brackets, D forms with d. Residues, ends and D or L forms follow the SMILES beside them. pY = N[C@@H](Cc1ccc(OP(=O)(O)O)cc1)C(=O)O

Legend:
Test in all cases: biochemical
Type in all cases: binding
[1] = target: T1, SOCS1 (Homo sapiens, UniProt O15524)
T1 construct: made in house; host or cells: HEK293 (transient transfection), unpurified extract
T1 sequence (O15524 1-211): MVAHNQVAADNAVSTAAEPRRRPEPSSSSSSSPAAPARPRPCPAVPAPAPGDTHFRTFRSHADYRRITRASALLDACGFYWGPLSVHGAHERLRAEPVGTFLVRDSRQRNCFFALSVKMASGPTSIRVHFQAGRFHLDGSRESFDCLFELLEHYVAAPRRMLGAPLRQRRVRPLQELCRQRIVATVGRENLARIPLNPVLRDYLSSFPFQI

[2] = target: T2, CRKL (Homo sapiens, UniProt P46109)
T2 construct: the DNA-tagged SH2 domain concentrations used in this study were <0.1 nM; made in house; host or cells: HEK293 (transient transfection; unpurified extract)

[3] = target: T3, PLCG1(SH2dom.C-term.) (Homo sapiens, UniProt P19174)
T3 construct: SH2dom.C-term. denotes SH2 domain closest to C-terminus of protein; made in house; host or cells: HEK293 (transient transfection, unpurified extract)
T3 sequence (P19174 668-756 limits assumed): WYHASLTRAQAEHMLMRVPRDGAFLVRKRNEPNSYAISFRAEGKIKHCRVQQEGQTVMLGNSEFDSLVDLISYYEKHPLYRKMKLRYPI

[4] = target: T4, TXK (Homo sapiens, UniProt P42681)
T4 construct: made in house; host or cells: HEK293 (transient transfection), unpurified extract
T4 sequence (P42681 1-527): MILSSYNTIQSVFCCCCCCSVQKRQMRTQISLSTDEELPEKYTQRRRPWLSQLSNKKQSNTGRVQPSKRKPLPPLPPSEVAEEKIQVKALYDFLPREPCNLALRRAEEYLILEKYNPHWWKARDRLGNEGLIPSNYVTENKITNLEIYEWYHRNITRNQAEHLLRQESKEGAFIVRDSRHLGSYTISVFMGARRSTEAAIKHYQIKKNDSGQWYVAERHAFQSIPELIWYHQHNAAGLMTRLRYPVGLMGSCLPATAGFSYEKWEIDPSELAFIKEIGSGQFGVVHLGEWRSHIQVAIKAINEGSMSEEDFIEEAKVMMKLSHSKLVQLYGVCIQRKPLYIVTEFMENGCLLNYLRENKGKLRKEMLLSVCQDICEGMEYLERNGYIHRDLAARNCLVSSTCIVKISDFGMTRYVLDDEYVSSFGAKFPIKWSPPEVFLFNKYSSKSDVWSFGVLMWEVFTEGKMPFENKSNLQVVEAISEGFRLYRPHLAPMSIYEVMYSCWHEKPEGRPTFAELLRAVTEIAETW

[5] = target: T5, VAV1 (Homo sapiens, UniProt P15498)
T5 construct: made in house; host or cells: HEK293 (transient transfection), unpurified extract
T5 sequence (P15498 1-845): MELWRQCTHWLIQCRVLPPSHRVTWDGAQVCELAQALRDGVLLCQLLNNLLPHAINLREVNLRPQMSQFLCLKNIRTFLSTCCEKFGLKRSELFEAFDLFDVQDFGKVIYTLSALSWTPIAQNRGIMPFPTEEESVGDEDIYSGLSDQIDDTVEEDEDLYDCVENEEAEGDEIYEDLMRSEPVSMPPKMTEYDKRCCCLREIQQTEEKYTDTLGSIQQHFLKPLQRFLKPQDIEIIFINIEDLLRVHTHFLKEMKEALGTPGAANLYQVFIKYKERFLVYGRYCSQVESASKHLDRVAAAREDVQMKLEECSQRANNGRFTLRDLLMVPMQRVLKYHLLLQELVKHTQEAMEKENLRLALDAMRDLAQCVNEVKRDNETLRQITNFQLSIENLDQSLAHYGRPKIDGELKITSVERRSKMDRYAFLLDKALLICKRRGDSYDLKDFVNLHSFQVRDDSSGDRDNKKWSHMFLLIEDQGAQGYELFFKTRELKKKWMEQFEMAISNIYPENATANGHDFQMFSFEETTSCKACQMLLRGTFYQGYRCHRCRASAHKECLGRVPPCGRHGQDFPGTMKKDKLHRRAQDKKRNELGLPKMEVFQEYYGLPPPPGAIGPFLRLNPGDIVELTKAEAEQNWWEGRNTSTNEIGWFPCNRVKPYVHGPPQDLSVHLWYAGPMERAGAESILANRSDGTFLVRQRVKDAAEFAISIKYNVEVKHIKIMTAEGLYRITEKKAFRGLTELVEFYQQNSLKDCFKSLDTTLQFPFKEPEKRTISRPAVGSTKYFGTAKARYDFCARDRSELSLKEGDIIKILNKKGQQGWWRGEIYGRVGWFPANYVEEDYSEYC

[6] = target: T6, VAV2 (Homo sapiens, UniProt P52735)
T6 construct: made in house; host or cells: HEK293 (transient transfection), unpurified extract
T6 sequence (P52735 1-878): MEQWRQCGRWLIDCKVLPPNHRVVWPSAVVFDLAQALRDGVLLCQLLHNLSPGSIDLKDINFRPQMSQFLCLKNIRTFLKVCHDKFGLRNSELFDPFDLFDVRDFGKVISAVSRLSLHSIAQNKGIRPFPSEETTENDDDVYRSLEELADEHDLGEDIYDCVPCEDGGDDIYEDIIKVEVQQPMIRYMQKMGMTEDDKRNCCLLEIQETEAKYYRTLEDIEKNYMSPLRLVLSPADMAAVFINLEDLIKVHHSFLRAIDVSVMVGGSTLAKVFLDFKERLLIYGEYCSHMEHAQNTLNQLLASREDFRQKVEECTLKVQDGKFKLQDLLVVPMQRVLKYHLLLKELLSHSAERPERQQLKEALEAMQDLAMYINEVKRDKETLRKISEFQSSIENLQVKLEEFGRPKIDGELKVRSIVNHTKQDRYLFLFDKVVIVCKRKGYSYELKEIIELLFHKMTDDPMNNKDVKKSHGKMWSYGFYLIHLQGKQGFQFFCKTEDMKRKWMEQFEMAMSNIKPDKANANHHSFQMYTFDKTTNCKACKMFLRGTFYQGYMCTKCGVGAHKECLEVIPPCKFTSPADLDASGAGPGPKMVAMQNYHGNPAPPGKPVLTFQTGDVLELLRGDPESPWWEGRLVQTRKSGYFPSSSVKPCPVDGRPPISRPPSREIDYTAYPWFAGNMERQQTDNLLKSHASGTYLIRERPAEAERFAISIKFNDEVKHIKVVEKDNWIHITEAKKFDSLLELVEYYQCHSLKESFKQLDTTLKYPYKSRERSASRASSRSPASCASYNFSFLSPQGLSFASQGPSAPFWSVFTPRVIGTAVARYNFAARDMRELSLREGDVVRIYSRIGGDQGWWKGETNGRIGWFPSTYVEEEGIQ

[7] = target: T7, VAV3 (Homo sapiens, UniProt Q9UKW4)
T7 construct: made in house; host or cells: HEK293 (transient transfection), unpurified extract
T7 sequence (Q9UKW4 1-847): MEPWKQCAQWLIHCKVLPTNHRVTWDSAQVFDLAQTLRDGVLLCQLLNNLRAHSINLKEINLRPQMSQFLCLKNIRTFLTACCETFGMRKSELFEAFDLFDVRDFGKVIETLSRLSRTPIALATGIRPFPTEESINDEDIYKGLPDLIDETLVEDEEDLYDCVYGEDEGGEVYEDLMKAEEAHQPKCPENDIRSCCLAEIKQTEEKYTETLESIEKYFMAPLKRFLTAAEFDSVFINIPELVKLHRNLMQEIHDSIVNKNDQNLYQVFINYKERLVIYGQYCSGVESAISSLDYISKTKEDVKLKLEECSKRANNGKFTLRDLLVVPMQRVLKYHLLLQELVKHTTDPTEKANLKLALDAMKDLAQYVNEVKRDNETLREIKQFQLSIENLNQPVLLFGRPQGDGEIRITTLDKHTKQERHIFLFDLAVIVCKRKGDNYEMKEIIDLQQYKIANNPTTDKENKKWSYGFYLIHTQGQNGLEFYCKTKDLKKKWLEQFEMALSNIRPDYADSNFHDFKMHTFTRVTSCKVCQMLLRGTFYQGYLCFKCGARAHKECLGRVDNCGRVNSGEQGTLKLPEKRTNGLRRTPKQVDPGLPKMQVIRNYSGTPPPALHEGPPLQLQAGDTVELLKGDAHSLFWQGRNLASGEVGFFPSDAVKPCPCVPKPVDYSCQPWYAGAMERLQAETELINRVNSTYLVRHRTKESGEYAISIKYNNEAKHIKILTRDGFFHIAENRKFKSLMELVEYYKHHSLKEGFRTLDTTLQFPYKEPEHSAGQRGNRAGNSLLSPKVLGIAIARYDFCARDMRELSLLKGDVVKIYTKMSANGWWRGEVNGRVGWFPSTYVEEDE

[8] = target: T8, NCK1 (Homo sapiens, UniProt P16333)
T8 construct: the DNA-tagged SH2 domain concentrations used in this study were <0.1 nM; made in house; host or cells: HEK293 (transient transfection, unpurified extract)

[9] = target: T9, TEC (Homo sapiens, UniProt P42680)
T9 construct: made in house; host or cells: HEK293 (transient transfection), unpurified extract
T9 sequence (P42680 1-631): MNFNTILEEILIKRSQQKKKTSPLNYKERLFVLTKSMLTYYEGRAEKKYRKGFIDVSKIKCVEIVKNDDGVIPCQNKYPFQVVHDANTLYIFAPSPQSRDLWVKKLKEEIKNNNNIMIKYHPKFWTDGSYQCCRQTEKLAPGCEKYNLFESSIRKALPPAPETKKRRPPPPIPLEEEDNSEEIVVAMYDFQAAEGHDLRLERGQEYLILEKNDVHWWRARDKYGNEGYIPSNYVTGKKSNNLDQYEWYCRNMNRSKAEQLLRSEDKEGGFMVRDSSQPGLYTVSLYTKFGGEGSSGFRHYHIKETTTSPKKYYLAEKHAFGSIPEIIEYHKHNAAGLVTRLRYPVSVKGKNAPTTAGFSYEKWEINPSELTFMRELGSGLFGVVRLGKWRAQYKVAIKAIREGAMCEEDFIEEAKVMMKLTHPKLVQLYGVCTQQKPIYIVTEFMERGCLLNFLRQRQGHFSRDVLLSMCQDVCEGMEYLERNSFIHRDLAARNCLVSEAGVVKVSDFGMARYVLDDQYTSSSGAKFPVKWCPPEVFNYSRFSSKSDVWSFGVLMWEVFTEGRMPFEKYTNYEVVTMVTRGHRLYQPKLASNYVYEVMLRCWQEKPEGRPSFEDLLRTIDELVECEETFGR

T2 sequence (P46109 14-102 limits assumed): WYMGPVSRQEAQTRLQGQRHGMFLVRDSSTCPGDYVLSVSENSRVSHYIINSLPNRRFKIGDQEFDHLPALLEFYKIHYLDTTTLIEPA

**Q.** For `CC(=O)N[C@@H](CS)C(=O)N[C@@H](CCC(N)=O)C(=O)N[C@H](C(=O)N[C@@H](Cc1ccc(OP(=O)(O)O)cc1)C(=O)N[C@@H](Cc1ccccc1)C(=O)N[C@H](C(=O)N[C@@H](Cc1ccc(O)cc1)C(=O)N[C@@H](CC(=O)O)C(=O)N1CCC[C@H]1C(=O)N[C@@H](Cc1ccc(O)cc1)C(=O)N[C@@H](CO)C(=O)N[C@@H](CCC(=O)O)C(N)=O)[C@@H](C)O)C(C)C` (Ac-CQV[pY]FTYDPYSE-NH2), which Kd [1] is on record?
**A.** 1430 ± 426 nM

**Q.** Which Kd [2] does the source give for `CC(=O)N[C@@H](CCC(=O)O)C(=O)N1CCC[C@H]1C(=O)NCC(=O)N1CCC[C@H]1C(=O)N[C@@H](Cc1ccc(OP(=O)(O)O)cc1)C(=O)N[C@@H](C)C(=O)N[C@@H](CCC(N)=O)C(=O)N1CCC[C@H]1C(=O)N[C@@H](CO)C(=O)N[C@H](C(=O)N[C@@H](CC(N)=O)C(=O)N[C@H](C(N)=O)[C@@H](C)O)C(C)C` (Ac-EPGP[pY]AQPSVNT-NH2) here?
**A.** 1200 ± 309 nM

**Q.** For `CC(=O)N[C@@H](CC(=O)O)C(=O)N[C@H](C(=O)N[C@@H](CCC(=O)O)C(=O)N[C@H](C(=O)N[C@@H](Cc1ccc(OP(=O)(O)O)cc1)C(=O)N[C@@H](CCC(=O)O)C(=O)N[C@@H](CO)C(=O)N1CCC[C@H]1C(=O)N[C@@H](Cc1ccc(OP(=O)(O)O)cc1)C(=O)N[C@@H](C)C(=O)N[C@@H](CC(=O)O)C(=O)N1CCC[C@H]1C(=O)N[C@@H](CCC(=O)O)C(N)=O)C(C)C)[C@@H](C)O` [Ac-DTEVpYESPpYADPE-NH2] (Ac-DTEV[pY]ESP[pY]ADPE-NH2), which Kd [3] is on record?
**A.** 2910 ± 2740 nM

**Q.** And the Kd [4]?
**A.** 4120 ± 637 nM

**Q.** What about the Kd [5] of the same compound?
**A.** 1400 ± 193 nM

**Q.** What about the Kd [6] of the same compound?
**A.** 95.1 ± 19.9 nM

**Q.** And the Kd [7]?
**A.** 163 ± 48.2 nM

**Q.** How did the Kd [8] turn out when `CC[C@H](C)[C@H](NC(=O)[C@H](Cc1c[nH]cn1)NC(=O)[C@H](CCC(=O)O)NC(C)=O)C(=O)N[C@@H](Cc1ccc(OP(=O)(O)O)cc1)C(=O)N[C@@H](CC(=O)O)C(=O)N[C@@H](CCC(=O)O)C(=O)N[C@H](C(=O)N[C@@H](C)C(=O)N[C@@H](C)C(=O)N[C@@H](CC(=O)O)C(N)=O)C(C)C` [Ac-EHIpYDEVAAD-NH2] was run?
**A.** 15.3 ± 5.07 nM

**Q.** What about the Kd [9] of the same compound?
**A.** 267 ± 66.3 nM
